One block for each compound: values may come before it. Calls of active or inactive are those of the source.
Key:
Format in all cases: functional
[1] = target: Calcium/calmodulin-dependent protein kinase type II subunit delta (Homo sapiens, UniProt Q13557)
[2] = target: Glycogen synthase kinase-3 beta (Homo sapiens, UniProt P49841);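 further: value comes from a broad kinome profiling panel, with GSK3B as the panel member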
[3] = target: Dual specificity protein kinase CLK2 (Homo sapiens, UniProt P49760)
[4] = target: Cyclin-dependent kinase 7 (Homo sapiens, UniProt P50613);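 further: value comes from a kinome-wide kinase profiling panel in which CDK7 is one member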
[5] = target: Misshapen-like kinase 1 (Homo sapiens, UniProt Q8N4C8);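 further: kinome panel screen with MINK as the panel member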
[6] = target: Cyclin-dependent kinase 8 (Homo sapiens, UniProt P49336); test: Navigating the Kinome. Panel member name: CDK8
[7] = target: Serine/threonine-protein kinase PAK 4 (Homo sapiens, UniProt O96013);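 further: value obtained within a kinome profiling panel in which PAK4 was one of the panel members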
[8] = target: Maternal embryonic leucine zipper kinase (Homo sapiens, UniProt Q14680)
[9] = target: cAMP-dependent protein kinase catalytic subunit PRKX (Homo sapiens, UniProt P51817)
[10] = target: Receptor-type tyrosine-protein kinase FLT3 (Homo sapiens, UniProt P36888);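 further: FLT3 was tested as one member of a kinome-wide kinase panel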
[11] = target: Serine/threonine-protein kinase pim-1 (Homo sapiens, UniProt P11309)
[12] = target: Casein kinase I isoform alpha (Homo sapiens, UniProt P48729)
[13] = target: Tyrosine-protein kinase JAK3 (Homo sapiens, UniProt P52333)
[14] = target: cAMP-dependent protein kinase catalytic subunit alpha (Homo sapiens, UniProt P17612)
[15] = target: Mitogen-activated protein kinase kinase kinase kinase 5 (Homo sapiens, UniProt Q9Y4K4);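 further: measured as one member of a kinome-spanning kinase panel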
[16] = target: Cyclin-dependent kinase 9 (Homo sapiens, UniProt P50750);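 further: value from the CDK9 entry of a kinome-spanning kinase panel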
[17] = target: Dual specificity protein kinase CLK4 (Homo sapiens, UniProt Q9HAZ1)
[18] = target: Serine/threonine-protein kinase N2 (Homo sapiens, UniProt Q16513)
[19] = target: Serine/threonine-protein kinase 17A (Homo sapiens, UniProt Q9UEE5)
[20] = target: Serine/threonine-protein kinase 3 (Homo sapiens, UniProt Q13188);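 further: measured as one member of a kinome-wide kinase panel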
[21] = target: Serine/threonine-protein kinase D3 (Homo sapiens, UniProt O94806);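 further: determined within a kinase panel screen, with PRKCN as the panel member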
[22] = target: Death-associated protein kinase 3 (Homo sapiens, UniProt O43293);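 further: measured as one member of a kinome-wide profiling panel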
[23] = target: Tyrosine-protein kinase SYK (Homo sapiens, UniProt P43405)
[24] = target: Homeodomain-interacting protein kinase 2 (Homo sapiens, UniProt Q9H2X6);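 further: measured within a kinome-wide kinase profiling panel, HIPK2 being one panel member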
[25] = target: Mitogen-activated protein kinase kinase kinase kinase 4 (Homo sapiens, UniProt O95819)
[26] = target: Multidrug resistance protein CDR2 (Candida albicans (strain SC5314 / ATCC MYA-2876) (Yeast), UniProt P78595); test: CaCDR2 efflux pump inhibitors in yeast, dose response, S. cerevisiae AD1-8u, singleplex, Cherry Pick1 hits (AID 588604)
[27] = target: Tyrosine-protein kinase Fyn (Homo sapiens, UniProt P06241)
[28] = target: Aurora kinase B (Homo sapiens, UniProt Q96GD4)
[29] = target: Mitogen-activated protein kinase 14 (Homo sapiens, UniProt Q16539);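 further: part of a kinome-wide panel, MAPK14 entry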
[30] = target: Mitogen-activated protein kinase 8 (Homo sapiens, UniProt P45983);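 further: value comes from one member of a kinome-wide kinase profiling panel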
[31] = target: G protein-coupled receptor kinase 5 (Homo sapiens, UniProt P34947); test: Navigating the Kinome. Panel member name: GPRK5
[32] = target: ALK tyrosine kinase receptor (Homo sapiens, UniProt Q9UM73);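 further: ALK tested as one member of a kinase panel screen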
[33] = target: Focal adhesion kinase 1 (Homo sapiens, UniProt Q05397);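 further: measured as one member of a kinome panel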
[34] = target: Tyrosine-protein kinase Lck (Homo sapiens, UniProt P06239);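 further: lck was assayed as one member of a kinase panel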
[35] = target: Activin receptor type-1 (Homo sapiens, UniProt Q04771); test: Navigating the Kinome. Panel member name: ACVR1
[36] = target: Leukocyte tyrosine kinase receptor (Homo sapiens, UniProt P29376); test: Navigating the Kinome. Panel member name: LTK
[37] = target: Glycogen synthase kinase-3 alpha (Homo sapiens, UniProt P49840);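 further: GSK3A result taken from a broad kinome-wide kinase panel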
[38] = target: Serine/threonine-protein kinase Chk1 (Homo sapiens, UniProt O14757);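 further: measured as one member of a kinome-wide kinase profiling panel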
[39] = target: LIM domain kinase 1 (Homo sapiens, UniProt P53667); test: Navigating the Kinome. Panel member name: LIMK1
[40] = target: Fibroblast growth factor receptor 1 (Homo sapiens, UniProt P11362)
[41] = target: Tyrosine-protein kinase BTK (Homo sapiens, UniProt Q06187)
[42] = target: Calcium/calmodulin-dependent protein kinase type II subunit alpha (Homo sapiens, UniProt Q9UQM7); test: Navigating the Kinome. Panel member name: CAMK2A
[43] = target: Serine/threonine-protein kinase TAO1 (Homo sapiens, UniProt Q7L7X3)
[44] = target: Neuropeptides B/W receptor type 1 (Homo sapiens, UniProt P48145); test: GPR7 antagonist potency, late-stage follow-up, cell-based, fluorescence, dose response, set 5 (AID 588566)
[45] = target: Melanin-concentrating hormone receptor 1 (Homo sapiens, UniProt Q99705); test: Late-stage fluorescence-based counterscreen for antagonists of the G-protein coupled receptor 7 (GPR7): cell-based dose response assay to identify antagonists of the melanin-concentrating hormone receptor 1 (MCHR1) Set 5.

Sequence of Serine/threonine-protein kinase D3 (O94806 whole entry): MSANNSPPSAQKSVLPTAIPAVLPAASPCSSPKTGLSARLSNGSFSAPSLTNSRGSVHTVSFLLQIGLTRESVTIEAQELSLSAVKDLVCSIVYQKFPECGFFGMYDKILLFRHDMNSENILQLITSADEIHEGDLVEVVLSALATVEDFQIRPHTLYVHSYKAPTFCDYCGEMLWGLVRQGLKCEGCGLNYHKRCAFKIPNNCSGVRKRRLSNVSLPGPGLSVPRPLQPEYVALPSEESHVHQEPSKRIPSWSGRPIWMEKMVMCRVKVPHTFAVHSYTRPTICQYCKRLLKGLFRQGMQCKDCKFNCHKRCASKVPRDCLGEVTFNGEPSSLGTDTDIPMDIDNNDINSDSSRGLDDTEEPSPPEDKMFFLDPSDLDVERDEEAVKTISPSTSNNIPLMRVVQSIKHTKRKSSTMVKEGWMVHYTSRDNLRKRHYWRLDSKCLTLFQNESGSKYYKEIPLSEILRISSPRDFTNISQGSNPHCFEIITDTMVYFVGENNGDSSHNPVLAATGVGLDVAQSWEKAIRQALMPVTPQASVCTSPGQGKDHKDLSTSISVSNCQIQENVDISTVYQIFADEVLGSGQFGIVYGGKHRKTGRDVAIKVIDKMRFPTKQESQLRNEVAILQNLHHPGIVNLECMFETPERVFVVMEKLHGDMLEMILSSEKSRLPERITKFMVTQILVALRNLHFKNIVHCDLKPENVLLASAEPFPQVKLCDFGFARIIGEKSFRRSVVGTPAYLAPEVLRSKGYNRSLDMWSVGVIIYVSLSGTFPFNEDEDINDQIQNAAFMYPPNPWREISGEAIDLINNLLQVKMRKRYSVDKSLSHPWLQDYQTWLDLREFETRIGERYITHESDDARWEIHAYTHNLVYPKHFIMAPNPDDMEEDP
Sequence of Dual specificity protein kinase CLK4 (Q9HAZ1 whole entry): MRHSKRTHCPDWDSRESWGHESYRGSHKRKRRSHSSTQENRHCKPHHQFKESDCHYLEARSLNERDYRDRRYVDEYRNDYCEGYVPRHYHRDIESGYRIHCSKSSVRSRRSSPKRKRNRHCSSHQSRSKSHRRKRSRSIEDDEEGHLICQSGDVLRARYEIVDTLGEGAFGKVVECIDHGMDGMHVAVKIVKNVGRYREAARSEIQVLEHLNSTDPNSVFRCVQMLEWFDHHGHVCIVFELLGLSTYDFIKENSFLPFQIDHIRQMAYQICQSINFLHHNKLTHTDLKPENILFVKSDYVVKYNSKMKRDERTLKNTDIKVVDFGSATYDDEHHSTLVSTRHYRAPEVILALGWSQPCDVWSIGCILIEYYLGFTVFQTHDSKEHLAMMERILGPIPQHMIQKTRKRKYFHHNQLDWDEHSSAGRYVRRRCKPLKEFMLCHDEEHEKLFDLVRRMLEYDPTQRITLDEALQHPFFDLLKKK
Sequence of Mitogen-activated protein kinase kinase kinase kinase 4 (O95819 whole entry): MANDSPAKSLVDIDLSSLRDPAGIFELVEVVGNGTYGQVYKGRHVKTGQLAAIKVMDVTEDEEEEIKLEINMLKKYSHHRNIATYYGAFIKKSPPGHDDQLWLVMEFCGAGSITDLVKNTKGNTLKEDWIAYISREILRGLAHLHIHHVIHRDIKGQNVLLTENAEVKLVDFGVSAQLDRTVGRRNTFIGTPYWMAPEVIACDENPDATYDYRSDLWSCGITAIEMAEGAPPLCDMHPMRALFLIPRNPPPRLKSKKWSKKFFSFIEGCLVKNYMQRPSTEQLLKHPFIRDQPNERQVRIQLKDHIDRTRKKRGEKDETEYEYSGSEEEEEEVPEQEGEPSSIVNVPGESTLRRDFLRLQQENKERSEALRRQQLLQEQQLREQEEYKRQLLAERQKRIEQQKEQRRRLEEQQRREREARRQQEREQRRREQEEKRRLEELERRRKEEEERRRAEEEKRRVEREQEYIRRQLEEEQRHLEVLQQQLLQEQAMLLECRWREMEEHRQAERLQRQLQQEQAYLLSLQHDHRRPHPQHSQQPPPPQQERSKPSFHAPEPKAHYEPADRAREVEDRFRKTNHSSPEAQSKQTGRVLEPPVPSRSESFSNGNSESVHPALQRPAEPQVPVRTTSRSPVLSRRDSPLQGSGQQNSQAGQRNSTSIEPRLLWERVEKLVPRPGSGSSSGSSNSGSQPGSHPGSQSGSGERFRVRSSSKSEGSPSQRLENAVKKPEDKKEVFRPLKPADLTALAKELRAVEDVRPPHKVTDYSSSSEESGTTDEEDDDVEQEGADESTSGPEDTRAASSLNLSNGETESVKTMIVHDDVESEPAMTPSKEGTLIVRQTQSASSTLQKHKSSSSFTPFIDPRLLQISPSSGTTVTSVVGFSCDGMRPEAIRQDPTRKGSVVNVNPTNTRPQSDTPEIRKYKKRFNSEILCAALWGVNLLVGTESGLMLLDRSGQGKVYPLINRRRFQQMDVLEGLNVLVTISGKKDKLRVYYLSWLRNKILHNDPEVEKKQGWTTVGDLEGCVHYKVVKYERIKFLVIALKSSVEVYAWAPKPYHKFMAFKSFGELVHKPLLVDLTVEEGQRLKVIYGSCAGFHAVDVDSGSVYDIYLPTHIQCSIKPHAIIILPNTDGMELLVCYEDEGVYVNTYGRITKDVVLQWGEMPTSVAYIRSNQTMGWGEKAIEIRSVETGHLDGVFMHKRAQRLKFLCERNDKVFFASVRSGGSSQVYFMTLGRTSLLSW
Sequence of Cyclin-dependent kinase 7 (P50613 whole entry): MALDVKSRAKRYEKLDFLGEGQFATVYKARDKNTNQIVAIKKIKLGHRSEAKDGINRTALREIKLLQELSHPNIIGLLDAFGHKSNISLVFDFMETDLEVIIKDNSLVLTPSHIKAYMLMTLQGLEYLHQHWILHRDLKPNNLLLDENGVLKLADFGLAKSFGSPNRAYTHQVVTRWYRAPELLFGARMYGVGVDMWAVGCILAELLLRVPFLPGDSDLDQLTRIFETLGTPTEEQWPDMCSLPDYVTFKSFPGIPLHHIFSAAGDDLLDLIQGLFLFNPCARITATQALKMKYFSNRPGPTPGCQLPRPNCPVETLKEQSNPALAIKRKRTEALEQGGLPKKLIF
Sequence of Casein kinase I isoform alpha (P48729 whole entry, canonical isoform): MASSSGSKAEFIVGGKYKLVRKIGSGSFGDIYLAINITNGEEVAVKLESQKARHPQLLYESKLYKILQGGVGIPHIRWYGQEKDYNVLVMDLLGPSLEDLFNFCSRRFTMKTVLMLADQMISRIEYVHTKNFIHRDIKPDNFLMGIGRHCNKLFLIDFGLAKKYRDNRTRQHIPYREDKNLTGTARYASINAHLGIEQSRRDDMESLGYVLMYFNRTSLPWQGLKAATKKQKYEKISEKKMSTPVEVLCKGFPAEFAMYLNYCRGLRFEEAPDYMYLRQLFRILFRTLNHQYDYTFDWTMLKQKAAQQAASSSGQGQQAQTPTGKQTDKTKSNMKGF
Sequence of Serine/threonine-protein kinase pim-1 (P11309 whole entry, canonical isoform): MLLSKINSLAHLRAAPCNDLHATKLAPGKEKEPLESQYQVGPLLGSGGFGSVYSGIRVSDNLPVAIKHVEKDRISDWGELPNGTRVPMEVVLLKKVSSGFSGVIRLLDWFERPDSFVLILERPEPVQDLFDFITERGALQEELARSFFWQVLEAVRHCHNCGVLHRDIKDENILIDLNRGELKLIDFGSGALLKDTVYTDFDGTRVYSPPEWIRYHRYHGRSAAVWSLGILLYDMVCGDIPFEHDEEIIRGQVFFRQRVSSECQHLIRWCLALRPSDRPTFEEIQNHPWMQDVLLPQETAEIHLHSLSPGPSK
Sequence of Death-associated protein kinase 3 (O43293 whole entry): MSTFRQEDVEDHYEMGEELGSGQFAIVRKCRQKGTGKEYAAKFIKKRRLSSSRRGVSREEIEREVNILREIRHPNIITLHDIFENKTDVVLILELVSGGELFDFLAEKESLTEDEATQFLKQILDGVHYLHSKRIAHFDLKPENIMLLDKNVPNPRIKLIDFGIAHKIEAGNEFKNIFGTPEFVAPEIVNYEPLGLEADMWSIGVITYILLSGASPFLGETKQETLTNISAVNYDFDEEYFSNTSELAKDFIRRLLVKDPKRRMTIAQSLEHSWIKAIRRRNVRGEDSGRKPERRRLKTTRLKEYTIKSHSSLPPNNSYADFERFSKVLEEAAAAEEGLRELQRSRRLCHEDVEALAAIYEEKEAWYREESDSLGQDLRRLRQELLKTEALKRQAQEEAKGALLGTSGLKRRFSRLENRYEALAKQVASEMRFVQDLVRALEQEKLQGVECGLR
Sequence of Cyclin-dependent kinase 8 (P49336 whole entry): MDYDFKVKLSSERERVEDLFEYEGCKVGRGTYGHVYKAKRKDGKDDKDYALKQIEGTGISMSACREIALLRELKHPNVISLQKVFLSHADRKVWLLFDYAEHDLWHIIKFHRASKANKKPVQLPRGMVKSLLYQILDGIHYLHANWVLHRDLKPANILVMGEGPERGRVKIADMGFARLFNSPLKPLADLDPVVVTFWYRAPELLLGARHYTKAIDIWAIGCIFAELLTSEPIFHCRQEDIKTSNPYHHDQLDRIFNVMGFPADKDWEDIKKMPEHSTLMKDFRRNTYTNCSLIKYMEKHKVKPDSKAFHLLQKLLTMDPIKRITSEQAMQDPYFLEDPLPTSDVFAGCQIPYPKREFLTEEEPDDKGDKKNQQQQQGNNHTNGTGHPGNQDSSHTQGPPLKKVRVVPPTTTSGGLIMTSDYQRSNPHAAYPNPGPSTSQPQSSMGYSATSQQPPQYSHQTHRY
Sequence of Serine/threonine-protein kinase 3 (Q13188 whole entry): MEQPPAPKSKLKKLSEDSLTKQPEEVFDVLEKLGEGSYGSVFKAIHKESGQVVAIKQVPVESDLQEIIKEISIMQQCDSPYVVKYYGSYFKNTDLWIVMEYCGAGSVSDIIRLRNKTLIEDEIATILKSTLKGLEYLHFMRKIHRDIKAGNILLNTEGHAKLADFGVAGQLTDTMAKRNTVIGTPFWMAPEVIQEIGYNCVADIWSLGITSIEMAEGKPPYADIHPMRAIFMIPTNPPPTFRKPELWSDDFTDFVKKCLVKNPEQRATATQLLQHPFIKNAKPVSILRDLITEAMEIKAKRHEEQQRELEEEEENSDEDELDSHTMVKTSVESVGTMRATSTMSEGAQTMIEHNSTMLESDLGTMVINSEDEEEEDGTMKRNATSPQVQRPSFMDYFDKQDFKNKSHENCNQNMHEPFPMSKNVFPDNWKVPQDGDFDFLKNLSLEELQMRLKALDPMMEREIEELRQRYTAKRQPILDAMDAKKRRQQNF

Ki [1]: > 3.16 µM (inactive)
Ki [2]: 0.0158 µM (active)
Ki [3]: 3.16 µM (active)
Ki [4]: 1.58 µM (active)
Ki [5]: > 2.51 µM (inactive)
Ki [6]: > 3.98 µM (inactive)
Ki [7]: 1 µM (active)
Ki [8]: 0.158 µM (active)
Ki [9]: 1 µM (active)
Ki [10]: 0.0631 µM (active)
Ki [11]: 1 µM (active)
Ki [12]: 2 µM (active)
Ki [13]: 1 µM (active)
Ki [14]: 3.98 µM (active)
Ki [15]: 2.51 µM (active)
Ki [16]: 0.2 µM (active)
Ki [17]: 0.126 µM (active)
Ki [18]: 2 µM (active)
Ki [19]: 0.02 µM (active)
Ki [20]: 0.501 µM (active)
Ki [21]: 0.398 µM (active)
Ki [23]: 0.501 µM (active)
Ki [24]: 0.158 µM (active)
Ki [25]: 2 µM (active)
Compound: O=C(O)c1ccccc1Nc1ncnc(Nc2ccc3cn[nH]c3c2)n1
Ki [22]: 0.2 µM (active)

Compound: CCCCSC1=N/C(=C/c2ccsc2)C(=O)N1c1ccccc1
EC50 [26]: 10.3 µM (active)

Ki [27]: > 6.31 µM (inactive)
Ki [4]: > 3.98 µM (inactive)
Ki [6]: > 3.98 µM (inactive)
Ki [28]: > 3.98 µM (inactive)
Ki [29]: > 3.98 µM (inactive)
Ki [7]: > 5.01 µM (inactive)
Ki [30]: > 5.01 µM (inactive)
Ki [31]: > 3.98 µM (inactive)
Ki [32]: > 6.31 µM (inactive)
Ki [11]: 2.51 µM (active)
Ki [12]: > 3.98 µM (inactive)
Ki [33]: > 6.31 µM (inactive)
Ki [34]: > 6.31 µM (inactive)
Ki [35]: > 3.98 µM (inactive)
Ki [13]: > 5.01 µM (inactive)
Ki [36]: 2 µM (active)
Ki [37]: > 3.98 µM (inactive)
Ki [38]: 0.398 µM (active)
Ki [39]: 0.794 µM (active)
Ki [17]: 2 µM (active)
Ki [40]: > 3.98 µM (inactive)
Ki [21]: > 3.98 µM (inactive)
Ki [41]: > 6.31 µM (inactive)
Ki [42]: > 3.98 µM (inactive)
Ki [43]: > 6.31 µM (inactive)
Ki [25]: > 5.01 µM (inactive)
Compound: CCN(CC)CCNc1ccc(O)c2ccccc12
Ki [22]: > 5.01 µM (inactive)

IC50 [44]: 3.22 µM (active)
IC50 [45]: 10.4 µM (inactive)
Compound: O=c1c(Cl)c(Oc2ccc3c(c2)CCO3)cnn1Cc1cccc2ccccc12

Reference: ChEMBL document CHEMBL1201862, “PubChem BioAssay data set” (2004)
